{"source": "patent US8278469B2", "about": "“17-hydroxy-17-pentafluoroethyl-estra-4,9(10)-dien-11-aryl derivatives, method of production thereof and use thereof for the treatment of diseases” (Bayer Pharma Aktiengesellschaft, priority 2009, dated 2012)", "key": {"[1]": {"target": "T1, human progesterone receptor A (PR-A) (Homo sapiens, UniProt P06401)", "T1 construct": "expressed in transfected cells; host or cells: SK-N-MC human neuroblastoma cells, stably transfected with pRChPR-A-neo and pMMTV-LUC", "T1 sequence (P06401 1-769 isoform P06401-2)": "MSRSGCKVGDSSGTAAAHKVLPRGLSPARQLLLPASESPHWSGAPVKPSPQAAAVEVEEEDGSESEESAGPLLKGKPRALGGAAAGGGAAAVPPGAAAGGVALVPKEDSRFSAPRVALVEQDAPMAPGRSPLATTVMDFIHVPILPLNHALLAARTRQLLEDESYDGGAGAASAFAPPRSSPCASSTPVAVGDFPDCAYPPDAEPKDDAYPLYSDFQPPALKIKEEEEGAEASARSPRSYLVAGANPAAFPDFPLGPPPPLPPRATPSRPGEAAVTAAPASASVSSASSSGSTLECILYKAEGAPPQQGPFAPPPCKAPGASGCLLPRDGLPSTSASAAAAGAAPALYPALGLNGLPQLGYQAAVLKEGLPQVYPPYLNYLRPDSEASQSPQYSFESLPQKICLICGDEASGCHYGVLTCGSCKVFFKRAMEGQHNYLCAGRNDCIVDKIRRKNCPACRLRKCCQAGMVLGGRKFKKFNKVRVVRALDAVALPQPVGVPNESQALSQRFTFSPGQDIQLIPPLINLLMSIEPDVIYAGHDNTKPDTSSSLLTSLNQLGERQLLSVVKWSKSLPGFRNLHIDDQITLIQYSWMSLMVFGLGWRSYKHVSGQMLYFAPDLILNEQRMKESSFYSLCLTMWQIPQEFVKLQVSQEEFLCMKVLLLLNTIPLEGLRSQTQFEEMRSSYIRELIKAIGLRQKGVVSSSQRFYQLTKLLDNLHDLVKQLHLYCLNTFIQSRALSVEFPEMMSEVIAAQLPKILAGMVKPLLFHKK", "test": "Progesterone receptor-antagonistic action in stable transfectants of SK-N-MC cells with human PR-A and MTV-LUC reporter", "type": "cell-based", "experimental": "Progesterone Receptor-Antagonistic Action in Stable Transfectants of Human Neuroblastoma Cells (SK-N-MC Cells) with the Human Progesterone A or Progesterone B Receptor and an MTV-LUC Reporter Construct\nSK-N-MC cells (human neuroblastoma cells), which have been stably transfected with plasmids, which express the human progesterone receptor B (pRChPR-B-neo) or the human progesterone receptor A (pRChPR-A-neo) and a reporter construct (pMMTV-LUC), were incubated for 24 hours either in the absence (negative control) or in the presence of increasing amounts of the respective test compound (0.01 nmol/l, 0.1 nmol/l, 1 nmol/l, 10 nmol/l, 100 nmol/l and 1 μmol/l), in order to determine the agonistic efficacy. As positive control of reporter gene induction, the cells were treated with the synthetic gestagen promegestone (0.01 nmol/l, 0.1 nmol/l, 1 nmol/l, 10 nmol/l, 100 nmol/l and 1 μmol/l). For determination of the antagonistic activity, the cells were treated with 0.1 nmol/l promegestone and additionally with increasing amounts of the respective test compound (0.01 nmol/l, 0.1 nmol/l, 1 nmol/l, 10 nmol/l, 100 nmol/l and 1 μmol/l). The activity of the LUC reporter gene (LUC=luciferase) was determined in the cell lysates and was measured as RLU (relative light units). All measured values are given as percentage efficacy and as EC50 or IC50 concentrations.\n11β-(4-Acetylphenyl)-20,20,21,21,21-pentafluoro-17-hydroxy-19-nor-17α-pregna-4,9-dien-3-one and 20,20,21,21,21-pentafluoro-17-hydroxy-11β-[4-(hydroxyacetyl)phenyl]-19-nor-17α-pregna-4,9-dien-3-one, very potent and therefore preferred examples from WO98/34947 and WO2008/058767, were tested as comparative compounds along with the test compound."}, "cardiovascular system": {"test_system": "cardiovascular system", "test": "Action on the cardiovascular system (incl. ECG) of anaesthetized beagle dogs", "type": "in vivo", "conditions": "anaesthetized female beagle dogs, i.v. 0.1; 0.33 and 1 mg/kg, in comparison with the control", "experimental": "Investigation of the Action on the Cardiovascular System (Incl. ECG) of Anaesthetized Beagle Dogs\n(11β,17β)-17-Hydroxy-11-[4-(methylsulphonyl)phenyl]-17-(pentafluoroethyl)estra-4,9-dien-3-one, dissolved in a mixture of PEG 400 and HP-β-CD (60% PEG 400, 40% HP-β-CD 30%), was administered intravenously to anaesthetized female beagle dogs. The body weight of the dogs was >9 kg. 3 dogs were treated per group and additionally 3 dogs in the control group. 0.1; 0.33 and 1 mg/kg of the substance was administered in 3 consecutive infusions, in each case over a period of 30 minutes. The maximum amount of vehicle was 0.4 ml per kg for 30 minutes. Blood samples were taken from the animals at various time points. The highest plasma level (average for all 3 animals) was 1650 ng/ml at the end of the third infusion."}, "[2]": {"test": "Permeation in Caco-2 cells", "type": "in vitro ADME", "conditions": "human, Caco-2, 2 μM, 37° C., apical to basolateral", "experimental": "Permeation of (11β,17β)-17-hydroxy-11-[4-(methylsulphonyl)phenyl]-17-(pentafluoroethyl)estra-4,9-dien-3-one in Caco-2 Cells\nFor the permeation studies, Caco-2 cells with a cell count of 300000 cells/ml were cultivated on Transwell Clear filter inserts (polyester; pore size 0.4 μm) in 12-well cell culture plates for at least 14 days in cell culture medium (1.5 ml) at 37° C., 5% CO2 and 95% air humidity. Before the test, to verify the “compactness” of the cell monolayer, the transepithelial resistance (TEER value) was determined, which must be greater than 300 Ωcm^2. Then the cell culture medium was replaced with hot transport buffer (0.5 ml apical, 1.5 ml basolateral) and the cells were equilibrated in it for 5 min. The permeability test was performed in duplicate at a substance concentration of 2 μM. At the start of the experiment, 100 μl (Ap0 min) was taken from the apical compartment and 100 μl of ice-cold stopping solution was added to it immediately. […] After further dilution of the samples with 4 times the volume of stopping solution/transport buffer (1+1) they were sedimented overnight at −20° C. and the supernatant was analysed by LCMS/MS. The Papp value of the substances was calculated from the following formula. […]"}}, "data": [{"compound": "C[C@]12C[C@H](c3ccc(S(C)(=O)=O)cc3)C3=C4CCC(=O)C=C4CC[C@H]3[C@@H]1CC[C@@]2(O)C(F)(F)C(F)(F)F", "note": "[Example 4, (11β,17β)-17-Hydroxy-11-[4-(methylsulphonyl)phenyl]-17-(pentafluoroethyl)estra-4,9-dien-3-one]", "values": [{"measurement": "Emax", "setting": "[1]; SK-N-MC, 24 h, read-out: Progesterone receptor A (PR-A) Efficacy", "value": 100, "unit": "%"}, {"measurement": "IC50", "setting": "[1]; antagonistic activity against 0.1 nmol/l promegestone, SK-N-MC cells, 24 hours, LUC reporter, read-out: Progesterone receptor A (PR-A) Potency IC50", "value": 0.096, "unit": "nM"}, {"measurement": "Effects on the cardiovascular system (pulmonary artery pressure, systemic arterial blood pressure, heart rate, ECG)", "setting": "cardiovascular system", "value": "no biologically relevant effects on the cardiovascular system"}, {"measurement": "Papp A→B at 90 min, 2 μM", "setting": "[2]", "value": 10.4, "unit": "×10⁻⁶ cm/s"}]}]}
